Experimental data reported in article PMC13164762, “Development and Validation of an LC-MS/MS Method for the Quantitation of JNJ-64619178 (JNJ) in Mouse Plasma: Characterization of In Vitro and In Vivo Pharmacokinetic Properties” (Molecules, 2026).
Where “and” joins values, the source holds several entries; their conditions need not be identical. Equal values may be shown once. Read-outs that look alike come from different tables or passages of the source.

What was measured:
[1] = Microsomal metabolic stability, human liver microsomes; assay type: in vitro ADME
Method: Mouse and human liver microsomes were used for the metabolic stability assay. In brief, the incubation mixture (500 µL) consisted of phosphate-buffered saline (PBS) (100 mM, pH 7.4), microsomal protein (0.5 mg mL^−1), magnesium chloride (10 mM), and NADPH (2 mM). Following pre-incubation of the above reaction mixture for 10 min at 37 °C, the reaction was initiated by spiking JNJ at a final 1 µg mL^−1 concentration. Alongside the test compound, testosterone at a final concentration of 1 µg mL^−1 was incubated as a positive control. All experiments were performed in triplicate. At sampling times of 0, 5, 10, 20, 30, 45, and 60 min, 40 µL samples were collected and quenched with 300 µL ice-chilled acetonitrile supplemented with 10 µL IS. Simultaneously, samples from NADPH-free negative controls were also withdrawn and processed accordingly to confirm any non-enzymatic degradation. Finally, after 1 h of collection, samples were vortexed at 1000 rpm for 1 min and centrifuged at 2200× g for 15 min, and the collected supernatant was analyzed using LC-MS/MS.
The natural logarithm of the area ratio versus time was plotted, and the slope of the curve was calculated by a linear regression equation to generate the elimination rate constant, k (min^−1). CLint was calculated by the following equation:(2) CLint=0.693/t1/2×Volume of incubation mixture (mL)/microsomal protein (mg)
CLH,int of JNJ in the mouse and human liver was then estimated from CLint using the scaling factor.(3) CLH,int=CLint×Microsomal protein (mg)/Liver (g)×Liver weight (g)/Body weight (kg)
Here, 45 and 32 mg of microsomal protein per g of liver weight were applied, and 60 and 25 g of liver weight per kg body weight were used for mouse and human tissue, respectively.

[2] = Biodistribution and brain penetration after PO dose; assay type: in vivo, balb/c mice; conditions: for concentration at 2 h / concentration at 8 h / concentration at 24 h: po
Method: Mouse plasma and tissue samples (liver, spleen, kidney, lung and brain) were prepared following the SPE procedure. Collected tissues were homogenized using Tissue Lyser II purchased from Qiagen Science, KY, after adding four times as much water as the tissue mass. For calibration standards and QC sample preparation, the 10 µL working stock and IS were spiked into 100 µL mouse plasma or tissue homogenates (liver, spleen, kidney, lung, and brain). After vortexing for 30 s on a Mixmate (Eppendorf North America, Enfield, CT, USA), samples were diluted with 600 µL of 5% formic acid and vortexed again at 1000 rpm for 2 min. Samples were centrifuged at 956× g for 10 min to get a clear sample that was not prone to blocking the cartridge during the SPE. Extraction was initiated by conditioning the cartridge (Oasis HLB 1 cc, Waters, Millford, MA, USA) with 1 mL of methanol, followed by a second conditioning with 1 mL of water. Then, the above-prepared samples were loaded into the cartridge and allowed to pass through the cartridge. Next, the cartridge was washed with 1 mL 15% methanol and dried for 1 min prior to the elution. For final elution, 500 µL 5% ammonium hydroxide in acetonitrile was eluted through the cartridges twice. Collected eluates were dried in a nitrogen dryer and reconstituted with 200 µL of mobile phase. Reconstituted samples were centrifuged at 956× g for 10 min, 150 µL supernatants were collected, and 5 µL was injected for LC-MS/MS.
For the oral PK study, male balb/C mice were grouped into two groups, with n = 4 for each group. Throughout the experiment, mice had free access to adequate food and water. The oral solution comprised 20% (v/v) polyethylene glycol 400, 10% (v/v) propylene glycol, 10% (v/v) ethanol, 2% (v/v) DMSO, 5% cremophore, and water as the rest of the volume. For the IV dose administration, 12 male balb/C mice were used in the study, divided into two groups. The IV solution used the same composition as the oral study. Doses of 10 and 2.5 mg kg^−1 were used for oral and IV routes, respectively. Blood samplings were done at 5 min, 15 min, 30 min, 1 h, 2 h, 4 h, 8 h, and 24 h. After collection, blood samples were centrifuged immediately at 956× g for 10 min, and plasma was separated in an Eppendorf tube and stored at −80 °C until processed. In the oral PK study, tissues—liver, kidney, spleen, lung, and brain—were collected at 2, 8, and 24 h to assess the biodistribution pattern of JNJ in the oral route.

[3] = Stability of JNJ in mouse plasma at different storage conditions; assay type: in vitro ADME
Method: The stability of JNJ in mouse plasma was evaluated at three replicates of LQC and HQCs in different storage conditions. Studies were conducted with the study of bench-top stability for 4 h at room temperature, freeze–thaw stability (three freeze–thaw cycles), autosampler stability (4 °C for 48 h) and long-term stability (at −80 °C for 1 month). Samples were considered stable if the % drug remaining after storage conditions was within ±15% compared to the freshly prepared QC samples.

microsomal intrinsic clearance (CLint) ([1]; HLM, mean ± SD, n = 3): 0.01 ± 0.001 mL min^−1 mg^−1 protein
half-life at 1 µg mL^−1 ([1]; human, liver microsomes, pH 7.4, HLM, mean ± SD, n = 3, read-out: Half-life (t1/2)): 2.47 ± 0.167 h
remaining at 1 h, 1 µg mL^−1 ([1]; human, liver microsomes, pH 7.4, HLMs, NADPH, 1 µg mL^−1, n = 3, read-out: percent remaining concentration after 1 h incubation): 72 ± 2%
Brain Content ([2]; 2 h after single PO 10 mg kg^−1, balb/c mice, n = 4): 55 ng/g
Brain Content ([2]; 8 h after single PO 10 mg kg^−1, balb/c mice, n = 4): 34 ng/g
Brain Content ([2]; 24 h after single PO 10 mg kg^−1, balb/c mice, n = 4): 23 ng/g
unbound plasma and brain concentrations/contents, fold lower than in vitro IC50 ([2]; across all time points, PO 10 mg kg^−1): more than 20 fold
concentration at 2 h ([2]; male, BALB/c, mouse, brain, 10 mg kg^−1, 2 h, PO 10 mg kg^−1, estimated with fu,brain = 0.057, read-out: Unbound Brain Content): 3.1 ng/g
concentration at 2 h ([2]; male, BALB/c, mouse, brain, 10 mg kg^−1, 2 h after single PO 10 mg kg^−1, balb/c mice, n = 4, read-out: Brain Content): 55 ± 27 ng/g
concentration at 8 h ([2]; male, BALB/c, mouse, brain, 10 mg kg^−1, 8 h, PO 10 mg kg^−1, estimated with fu,brain = 0.057, read-out: Unbound Brain Content): 1.9 ng/g
concentration at 8 h ([2]; male, BALB/c, mouse, brain, 10 mg kg^−1, 8 h after single PO 10 mg kg^−1, balb/c mice, n = 4, read-out: Brain Content): 34 ± 1 ng/g
concentration at 24 h ([2]; male, BALB/c, mouse, brain, 10 mg kg^−1, 24 h, PO 10 mg kg^−1, estimated with fu,brain = 0.057, read-out: Unbound Brain Content): 1.3 ng/g
concentration at 24 h ([2]; male, BALB/c, mouse, brain, 10 mg kg^−1, 24 h after single PO 10 mg kg^−1, balb/c mice, n = 4, read-out: Brain Content): 23 ± 3 ng/g
concentration at 8 h ([2]; male, BALB/c, mouse, kidney, 10 mg kg^−1, 8 h after single PO 10 mg kg^−1, balb/c mice, n = 4, read-out: Content, Kidney): 474 ± 131 ng/g
concentration at 24 h ([2]; male, BALB/c, mouse, kidney, 10 mg kg^−1, 24 h after single PO 10 mg kg^−1, balb/c mice, n = 4, read-out: Content, Kidney): 56 ± 27 ng/g
concentration at 8 h ([2]; male, BALB/c, mouse, liver, 10 mg kg^−1, 8 h after single PO 10 mg kg^−1, balb/c mice, n = 4, read-out: Content, Liver): 1190 ± 167 ng/g
concentration at 24 h ([2]; male, BALB/c, mouse, liver, 10 mg kg^−1, 24 h after single PO 10 mg kg^−1, balb/c mice, n = 4, read-out: Content, Liver): 52 ± 31 ng/g
concentration at 2 h ([2]; male, BALB/c, mouse, lung, 10 mg kg^−1, 2 h after single PO 10 mg kg^−1, balb/c mice, n = 4, read-out: Content, Lung): 2570 ± 550 ng/g
concentration at 8 h ([2]; male, BALB/c, mouse, lung, 10 mg kg^−1, 8 h after single PO 10 mg kg^−1, balb/c mice, n = 4, read-out: Content, Lung): 599 ± 91 ng/g
concentration at 24 h ([2]; male, BALB/c, mouse, lung, 10 mg kg^−1, 24 h after single PO 10 mg kg^−1, balb/c mice, n = 4, read-out: Content, Lung): 45 ± 25 ng/g
concentration at 2 h ([2]; male, BALB/c, mouse, plasma, 10 mg kg^−1, 2 h, PO 10 mg kg^−1, balb/c mice, read-out: Plasma Concentration): 1470 ng/mL
concentration at 2 h ([2]; male, BALB/c, mouse, plasma, 10 mg kg^−1, 2 h, PO 10 mg kg^−1, estimated with fu,plasma = 0.025, read-out: Unbound Plasma Concentration): 37 ng/mL
concentration at 8 h ([2]; male, BALB/c, mouse, plasma, 10 mg kg^−1, 8 h, PO 10 mg kg^−1, balb/c mice, read-out: Plasma Concentration): 93 ng/mL
concentration at 8 h ([2]; male, BALB/c, mouse, plasma, 10 mg kg^−1, 8 h, PO 10 mg kg^−1, estimated with fu,plasma = 0.025, read-out: Unbound Plasma Concentration): 2.3 ng/mL
concentration at 24 h ([2]; male, BALB/c, mouse, plasma, 10 mg kg^−1, 24 h, PO 10 mg kg^−1, balb/c mice, read-out: Plasma Concentration): 1.6 ng/mL
concentration at 24 h ([2]; male, BALB/c, mouse, plasma, 10 mg kg^−1, 24 h, PO 10 mg kg^−1, estimated with fu,plasma = 0.025, read-out: Unbound Plasma Concentration): 0.04 ng/mL
concentration at 2 h ([2]; male, BALB/c, mouse, spleen, 10 mg kg^−1, 2 h after single PO 10 mg kg^−1, balb/c mice, n = 4, read-out: Content, Spleen): 1900 ± 220 ng/g
concentration at 8 h ([2]; male, BALB/c, mouse, spleen, 10 mg kg^−1, 8 h after single PO 10 mg kg^−1, balb/c mice, n = 4, read-out: Content, Spleen): 643 ± 58 ng/g
concentration at 24 h ([2]; male, BALB/c, mouse, spleen, 10 mg kg^−1, 24 h after single PO 10 mg kg^−1, balb/c mice, n = 4, read-out: Content, Spleen): 95 ± 25 ng/g
concentration at 2 h ([2]; male, balb/c, mouse, kidney, 10 mg kg^−1, 2 h after single PO 10 mg kg^−1, balb/c mice, n = 4, read-out: Content, Kidney): 2950 ± 822 ng/g
concentration at 2 h ([2]; male, balb/c, mouse, liver, 10 mg kg^−1, 2 h after single PO 10 mg kg^−1, balb/c mice, n = 4, read-out: Content, Liver): 6070 ± 1500 ng/g
Kp uu at 2 h ([2]; male, mouse, brain, 2 h, PO 10 mg kg^−1, balb/c mice, read-out: Kp,uu,brain (unbound brain-to-plasma partition coefficient)): 0.08
Kp uu at 8 h ([2]; male, mouse, brain, 8 h, PO 10 mg kg^−1, balb/c mice, read-out: Kp,uu,brain (unbound brain-to-plasma partition coefficient)): 0.82
Kp uu at 24 h ([2]; male, mouse, brain, 24 h, PO 10 mg kg^−1, balb/c mice, read-out: Kp,uu,brain (unbound brain-to-plasma partition coefficient)): 33.3
% Stability Recoveries (Mean ± SD), Autosampler (4 °C, 48 h) ([3]; HQC (375 ng mL^−1)): 110 ± 6%
% Stability Recoveries (Mean ± SD), Bench-Top (RT, 4 h) ([3]; HQC (375 ng mL^−1)): 101 ± 15%
% Stability Recoveries (Mean ± SD), Freeze–Thaw (−80 ± 5 °C After 3 Cycle) ([3]; HQC (375 ng mL^−1)): 94 ± 8%
% Stability Recoveries (Mean ± SD), Long-Term Stability (−80 ± 5 °C, 30 Days) ([3]; HQC (375 ng mL^−1)): 95 ± 8%
% Stability Recoveries (Mean ± SD), Autosampler (4 °C, 48 h) ([3]; LQC (0.5 ng mL^−1)): 110 ± 7%
% Stability Recoveries (Mean ± SD), Bench-Top (RT, 4 h) ([3]; LQC (0.5 ng mL^−1)): 91 ± 9%
% Stability Recoveries (Mean ± SD), Freeze–Thaw (−80 ± 5 °C After 3 Cycle) ([3]; LQC (0.5 ng mL^−1)): 93 ± 4%
% Stability Recoveries (Mean ± SD), Long-Term Stability (−80 ± 5 °C, 30 Days) ([3]; LQC (0.5 ng mL^−1)): 97 ± 9%
Compound: Nc1nc2cc(CC[C@H]3C[C@@H](n4ccc5c(N)ncnc54)[C@H](O)[C@@H]3O)ccc2cc1Br [JNJ, JNJ-64619178]
hepatic intrinsic clearance (CLH,int) ([1]; HLM, scaled from CLint (32 mg protein/g liver, 25 g liver/kg)): 7 ± 0.6 mL min^−1 kg^−1 body weight and 7 ± 0.5 mL min^−1 kg^−1 body weight
